These results are taken from PubChem BioAssay (NCI).

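Assay format: 96-well plates, 48-hour exposure. GI50 is the concentration that inhibits growth by half. TGI marks complete inhibition of growth.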

Holding throughout (test): DTP human tumour cell line panel, 48 h
The subject of assay [1] is NCI/ADR-RES ovarian.
The subject of assay [2] is UO-31 renal.
Assay [3] deals with MALME-3M melanoma.
Assay [4] concerns NCI-H522 lung.
The subject of assay [5] is HCT-116 colon.
Assay [6] relates to MDA-N.
In assay [7] the test system is T-47D breast.
Assay [8] has as its system NCI-H226 lung.
Assay [9] relates to A498 renal.
Assay [10] relates to COLO 205 colon.
Assay [11] relates to MOLT-4 leukemia.
Assay [12] has as its system SW-620 colon.
In assay [13] the test system is RXF 393 renal.
Assay [14] concerns PC-3 prostate.
Assay [15] concerns UACC-62 melanoma.
Assay [16] deals with ACHN renal.
The subject of assay [17] is HS 578T breast.
Assay [18] deals with SNB-19 CNS.
In assay [19] the test system is U251 CNS.

Take `CN1CCC(OC(=O)Oc2ccccc2)(c2ccccc2)CC1`: the TGI came to 39.2 µM in assay [1]; 54.2 µM in [2]; 32.5 µM in assay [3]; 49.8 µM in assay [4]; 30.5 µM in assay [5]; 34.9 µM in [6]. In addition, the TGI in assay [7] was 52.1 µM; in [8], 62.7 µM; in [9], 56.4 µM; in assay [10], 25.8 µM; in assay [11] it was 36.4 µM; in [12] it was 59.6 µM. In addition, the TGI in [13] is more than 100 µM; in assay [14], 45.8 µM; in [15], 37.6 µM; in assay [16], more than 100 µM; in assay [17] it was 54.3 µM; in assay [18], 69.2 µM. For the same molecule, in assay [19], the TGI is 44.9 µM.
`Cc1c(Cc2ccccc2)n(COCCCO)c(=O)[nH]c1=O`: the TGI in assay [1], in assay [2], in assay [3], in assay [4], in [5] and in [6] was more than 100 µM each time. The TGI in assay [7], in [8], in assay [9], in assay [10], in [11] and in assay [12] was more than 100 µM each time. Besides, the TGI in [13], in assay [14], in assay [15], in assay [16], in assay [17] and in [18] was more than 100 µM in each case. Besides, the TGI in assay [19] is more than 100 µM.
Consider `Cc1[nH]c(=O)[nH]c(=S)c1C(=O)NC(C)(CO)CO`, for which the total growth inhibition concentration (TGI) in assay [1], in assay [2], in assay [3], in assay [4], in assay [5] and in [6] was more than 100 µM throughout. Also, the TGI in assay [7], in assay [8], in assay [9], in assay [10], in [11] and in assay [12] was more than 100 µM in each case. Further, the concentration for total growth inhibition (TGI) in [13], in assay [14], in assay [15], in [16], in assay [17] and in assay [18] was more than 100 µM throughout. This molecule also came in with a TGI in assay [19] of more than 100 µM.
Take `C[N+](C)(N)CCC[N+](C)(C)N`: the concentration for total growth inhibition (TGI) in [1], in [2], in [3], in assay [4], in [5] and in [6] was more than 100 µM in each case. Also, the TGI in assay [7], in [8], in assay [9], in assay [10], in assay [11] and in [12] was more than 100 µM each time. Further, the total growth inhibition concentration (TGI) in [13], in [14], in assay [15], in assay [16], in assay [17] and in [18] was more than 100 µM each time. In assay [19], this molecule came in with a TGI of more than 100 µM.
In the case of `O=C(Nc1ccc2nc(-c3ccccc3)cn2c1)Oc1ccccc1`, the concentration for total growth inhibition (TGI) in [1] was more than 100 µM; in assay [2] it was more than 100 µM; in assay [3], more than 100 µM; in [4] it was 90.2 µM; in [5] it was more than 100 µM; in assay [6], 41.9 µM. Also, the total growth inhibition concentration (TGI) in assay [7] was 76.9 µM; in [8], more than 100 µM; in assay [9], more than 100 µM; in [10], more than 100 µM; in assay [11] it was more than 100 µM; in [12], more than 100 µM. Further, the TGI in assay [13] was 7.31 µM; in assay [14], more than 100 µM; in [15] it was more than 100 µM; in assay [16], more than 100 µM; in assay [17] it was more than 100 µM; in [18] it was more than 100 µM. In addition, the TGI in assay [19] was more than 100 µM.
Take `CSc1nc(Cl)c2c(n1)Sc1nc3cc4c(cc3n1C2O)OCO4` (stereo unspecified): the TGI is 5.72 µM in [1]; more than 57.8 µM in [2]; 63.9 µM in assay [3]; 0.639 µM in assay [4]; more than 47.4 µM in [5]; 36.1 µM in assay [6]. The TGI is more than 100 µM in [7]; 6.09 µM in assay [8]; 40.4 µM in assay [9]; 0.686 µM in assay [10]; more than 100 µM in assay [11]; more than 81.8 µM in assay [12]. For the same molecule, the concentration for total growth inhibition (TGI) is more than 51.9 µM in assay [13]; more than 60.3 µM in assay [14]; 14.2 µM in assay [15]; more than 100 µM in [16]; more than 30.4 µM in [17]; more than 100 µM in assay [18]. Further, the TGI in [19] is more than 50.1 µM.
Turning to `CC(C)NC(=O)OCc1c(COC(=O)NC(C)C)c(-c2ccc[n+](COC(=O)CC(C)(C)C)c2)n2c1CCC2`, the concentration for total growth inhibition (TGI) in assay [1], in assay [2], in assay [3], in [4], in [5] and in assay [6] was more than 100 µM throughout. For the same molecule, the concentration for total growth inhibition (TGI) in assay [7], in [8], in assay [9], in assay [10], in assay [11] and in [12] was more than 100 µM in each case. In addition, the TGI in assay [13], in assay [14], in assay [15], in assay [16], in [17] and in assay [18] was more than 100 µM in each case. The molecule further yielded a total growth inhibition concentration (TGI) in assay [19] of more than 100 µM.
`COc1cc(C2c3cc4c(cc3[C@H](OCCN(C)C)[C@@H]3COC(=O)C23)OCO4)cc(OC)c1O` (stereo partly specified): the TGI in [1] came to 15.1 µM; in assay [2], 1.71 µM; in assay [3], 1.73 µM; in assay [4] it was 2.35 µM; in assay [5], 7.18 µM; in assay [6], 30 µM. Further, the concentration for total growth inhibition (TGI) in [7] is 2.52 µM; in assay [8] it was 0.301 µM; in assay [9], 1.22 µM; in assay [10], 9.05 µM; in assay [11] it was 0.684 µM; in assay [12], 3.4 µM. For the same molecule, the total growth inhibition concentration (TGI) in assay [13] was 1.55 µM; in [14], 81.1 µM; in assay [15], 0.496 µM; in assay [16], 0.253 µM; in [17], 6.04 µM; in assay [18] it was 5.98 µM. Also, the concentration for total growth inhibition (TGI) in [19] turned out to be 0.898 µM. The concentration for 50% growth inhibition (GI50) in [19] is 0.0409 µM.
Turning to `CC(=O)NNc1nc(C)c(C(/C=C/c2cccc([N+](=O)[O-])c2)=N/NC(=S)NN)s1`, the TGI in assay [1], in assay [2], in assay [3], in assay [4], in [5] and in assay [6] was more than 100 µM each time. In addition, the TGI in assay [7], in [8], in [9], in assay [10], in assay [11] and in [12] was more than 100 µM in each case. The concentration for total growth inhibition (TGI) in [13], in [14], in [15], in assay [16], in assay [17] and in assay [18] was more than 100 µM in each case. In assay [19], the concentration for total growth inhibition (TGI) is more than 100 µM.
With `Brc1ccc2c(-c3nc(-c4c[nH]c5ccc(Br)cc45)cs3)c[nH]c2c1`, the TGI in assay [1] worked out at 18.1 µM; in [2], 13.7 µM; in assay [3], 19.4 µM; in assay [4], 4.85 µM; in assay [5], 14.3 µM; in [6], 16.4 µM. Further, the total growth inhibition concentration (TGI) stood at 31.9 µM in assay [7]; 5.37 µM in assay [8]; 11.8 µM in assay [9]; 7.06 µM in [10]; 8.42 µM in assay [11]; 24.4 µM in [12]. Further, the TGI is 12.4 µM in assay [13]; 17.9 µM in assay [14]; more than 48.4 µM in assay [15]; more than 30 µM in [16]; more than 52.9 µM in assay [17]; 13 µM in assay [18]. Moreover, the total growth inhibition concentration (TGI) in assay [19] came out at 16.1 µM.
As for `CC(=O)c1cccc2c1CC1(C2)Cc2ccc3c(c2C1=O)CCC3` (stereo unspecified), the total growth inhibition concentration (TGI) in [1] is 57.5 µM; in assay [2] it was more than 100 µM; in assay [3], more than 100 µM; in assay [4], more than 100 µM; in [5] it was more than 100 µM; in [6], more than 100 µM. Moreover, the concentration for total growth inhibition (TGI) in assay [7] was more than 100 µM; in [8], more than 100 µM; in assay [9] it was more than 100 µM; in [10], 92.4 µM; in assay [11], more than 100 µM; in assay [12], more than 100 µM. In addition, the TGI in [13], in assay [14], in assay [15], in [16], in assay [17] and in [18] was more than 100 µM throughout. The molecule further showed a TGI in [19] of more than 100 µM.
With `O=C1NC(Nc2cccc(Cl)c2)=N/C1=C\c1ccc(Cl)c(Cl)c1`, the TGI stood at 16.2 µM in assay [1]; 20.6 µM in assay [2]; 27.8 µM in assay [3]; 6.62 µM in [4]; 14.2 µM in assay [5]; 15.8 µM in [6]. In addition, the TGI in assay [7] stood at 14.2 µM; in [8], 17.2 µM; in assay [9], 16.3 µM; in assay [10] it was 13.1 µM; in [11] it was 20.8 µM; in assay [12] it was 19.6 µM. Further, the total growth inhibition concentration (TGI) came out at 10.4 µM in assay [13]; 13.3 µM in assay [14]; 21.6 µM in assay [15]; 17 µM in assay [16]; 13.4 µM in assay [17]; 21 µM in assay [18]. The molecule further returned a total growth inhibition concentration (TGI) in assay [19] of 14.6 µM.
Take `CCCN(CCCCC(NC(C)=O)C(=O)NCc1ccccc1)C(=O)N(CCCl)N=O` (stereo unspecified): the TGI in assay [1], in [2], in [3], in assay [4], in [5] and in [6] was more than 100 µM in each case. Further, the TGI in assay [7], in assay [8], in assay [9], in [10], in [11] and in assay [12] was more than 100 µM in each case. Further, the TGI in assay [13] was 98.9 µM; in assay [14], more than 100 µM; in assay [15], more than 100 µM; in [16], more than 100 µM; in [17] it was more than 100 µM; in [18] it was more than 100 µM. Also, the TGI in [19] is more than 74.9 µM.
For the molecule `COC12C=CC(CC1)C(C)(C)C2=O` (stereo unspecified), the total growth inhibition concentration (TGI) in [1], in [2], in assay [3], in assay [4], in [5] and in assay [6] was more than 100 µM in each case. Moreover, the TGI in assay [7], in [8], in assay [9], in [10], in assay [11] and in [12] was more than 100 µM throughout. The TGI in [13], in [14], in assay [15], in assay [16], in assay [17] and in assay [18] was more than 100 µM throughout. This molecule registered a total growth inhibition concentration (TGI) in [19] of more than 100 µM.
Regarding `CC(=O)NCc1nc(C#N)c(N)o1`, the TGI in [1], in assay [2], in [3], in assay [4], in assay [5] and in assay [6] was more than 100 µM in each case. Further, the TGI in assay [7], in assay [8], in assay [9], in assay [10], in assay [11] and in [12] was more than 100 µM throughout. The TGI in [13], in assay [14], in assay [15], in [16], in [17] and in [18] was more than 100 µM each time. For the same molecule, the total growth inhibition concentration (TGI) in [19] was more than 100 µM.
